Values of other authors in patent publication US20140303119A1, “METHODS, APPARATUS, AND COMPOUNDS FOR THE TREATMENT OF CENTRAL RETINAL VEIN OCCLUSION AND OTHER CONDITIONS” (DiLorenzo Biomedical, LLC, priority 2013, published 2014).

Assays:
[1] = tested on: thrombosis of the central retinal vein; details: given intravenously, small randomized clinical study
retinal vein occlusion = details: patients with retinal vein occlusion, troxerutin versus placebo
CRVO = details: review statement, evidence limited (level B, III)
[2] = tested on: central retinal vein occlusion
patients with CRVO = details: 96 patients with CRVO

Compound: COC(=O)[C@H](c1ccccc1Cl)N1CCc2sccc2C1 [Clopidrogel, (+)-(S)-methyl 2-(2-chlorophenyl)-2-(6,7-dihydrothieno[3,2-c]pyridin-5(4H)-yl)acetate]
- incidence of blood disorders compared with ticlodipine (no need for regular monitoring): reduced incidence of blood disorders

Compound: CCCCC[C@H](O)/C=C/[C@@H]1[C@H]2C/C(=C/CCCC(=O)O)O[C@H]2C[C@H]1O [Prostacyclin]
- progression to neovascularization versus placebo [1]: no significant difference
- visual acuity versus placebo [1]: no significant difference

Compound: Clc1ccccc1CN1CCc2sccc2C1 [Ticlodipine]
- incidence of very serious hematological toxicity, including neutropenia, thrombocytopenia, and aplastic anemia (patients, requires regular monitoring): 0.5%-3%

Compound: C[C@@H]1O[C@@H](OC[C@H]2O[C@@H](Oc3c(-c4ccc(OCCO)c(OCCO)c4)oc4cc(OCCO)cc(O)c4c3=O)[C@H](O)[C@@H](O)[C@@H]2O)[C@H](O)[C@H](O)[C@H]1O [troxerutin]
- macular edema versus placebo (retinal vein occlusion): improvement
- retinal circulation time versus placebo (retinal vein occlusion): improvement
- visual acuity versus placebo (retinal vein occlusion): improvement
- outcome of CRVO (CRVO): trend for improvement

Compound: Streptokinase
- patients showing deterioration in vision ([2]; treated group (continuous infusion followed by warfarin), control group 12 of 20): 5 of 20
- patients experiencing massive vitreous hemorrhage with persistence of blindness in those eyes ([2]; treated group, within 72 hours): 3 of 20

Compound: Tissue plasminogen activator (tPA): Tissue plasminogen activator, fibrinolytic therapy
- fatal stroke (patients with CRVO): 1 patient
- severe intraocular bleeding (patients with CRVO): 3 patients
